In brackets after ≈: the same amount, converted by molar mass. Where two headings read alike, the source gives them in different places.
Experiments:
Assay type in all cases: cell-based
[1] = test system: Staphylococcus aureus strain S25; assay: Bacterial growth inhibition screen at 50 μM; details: S25, 50 μM, 20 h, 37° C.
Method: (§1) The inhibition of the growth of two Staphylococcus aureus strains ([…], modified laboratory strain, non-pathogenic; and S25, pathogenic strain obtained from patients) by the presence of our compounds were used to evaluate their efficacy as bacteriostatic and/or bactericide compounds.
(§2) All compounds presented were dissolved in DMSO (10 mM stock solution) and tested initially at 50 μM concentration. The bacterial growth was measured after 5 h and 20 h incubation at 37° C. with the compounds. As positive control, the antibiotics ampicillin and kanamycin were used.

[2] = test system: Staphylococcus aureus strain RN4220; assay: Bacterial growth inhibition screen at 50 μM; details: RN4220, 50 μM, 20 h, 37° C.
Method: as §1, §2

[3] = test system: Staphylococcus aureus strain S25; assay: Minimal Bactericide Concentration (MBC) determination; details: 24 h in fresh media, pathogenic strain
Method: (§3) MIC is defined as the smallest concentration of a compound that inhibits the growth of bacteria. For that, 6 doses were tested (1, 5, 12.5, 25, 50, 100 μM) for both strains incubated at 37° C., for 20 h.
(§4) Minimum inhibitory concentration (MIC, incubation for 20 h) and maximum bactericide concentration (MBC, incubation for 24 h) for S. aureus strains RN4220 and S25.
(§5) 2 Staphylococcus aureus Strains: • RN4220 (non-pathogenic) • S25 (pathogenic) • MIC: minimal inhibitory concentration • MBC: minimal bactericide concentration

[4] = test system: Staphylococcus aureus strain RN4220; assay: as above; details: RN4220, 24 h, read-out: MBC RN4220
Method: as §3, §4, §5

[5] = test system: human embryonic kidney 293 cells (HEK293); assay: Cytotoxicity by extracellular LDH release (CyQUANT LDH Cytotoxicity Assay Kit); details: HEK293, 24 h, at their active doses (range of MIC and MBC), N=3
Method: • HEK293: 24 h in the presence of the bactericide compounds or DMSO • Method of evaluation: CyQUANT™ LDH Cytotoxicity Assay Kit.
Cytotoxicity through extracellular lactate dehydrogenase (LDH) quantification upon incubation of the compounds with HEK 293T cells at the same range of concentration as MIC and MBC. LDH: positive control, DMEM: negative control. N=3.
Preliminary safety of these compounds towards host cells was evaluated by using a extracellular lactate dehydrogenase (LDH) release model with human embryonic kidney 293 cells (HEK293).

[6] = test system: Staphylococcus aureus strain S25; assay: Minimal Inhibitory Concentration (MIC) determination; details: Bacteriostatic, 20 h, 37° C., pathogenic strain
Method: as §3, §4, §5

[7] = test system: Staphylococcus aureus strain RN4220; assay: as above; details: read-out: MIC RN4220
Method: as §3, §4, §5

[8] = RN4220, Bacteriostatic, 20 h, 37° C., non-pathogenic strain

Structure (SMILES): N=C(Nc1nc2c(F)cc(F)cc2s1)C(Cl)(Cl)Cl [MTF573, 2,2,2-trichloro-N-(4,6-difluorobenzo[d]thiazol-2-yl)acetimidamide]
- bacterial growth / growth inhibition (in words) [1]: no growth
- bacterial growth / growth inhibition (in words) [2]: no growth
- MBC [3]: 50 µM (≈ 16.5 µg/mL)
- MBC [4]: 50 µM (≈ 16.5 µg/mL)
- cytotoxicity (extracellular LDH level versus DMSO control) [5]: no cytotoxicity activity
- MIC [6]: 50 µM (≈ 16.5 µg/mL)
- MIC [7, 8]: 40 µM (≈ 13.2 µg/mL)

Structure (SMILES): N=C(Nc1nc2c(Br)cccc2s1)C(Br)Br [MTF643, 2,2-dibromo-N-(4-bromobenzo[d]thiazol-2-yl)acetimidamide]
- MBC [3]: 50 µM (≈ 21.4 µg/mL)
- MBC [4]: 25 µM (≈ 10.7 µg/mL)
- cytotoxicity (extracellular LDH level versus DMSO control) [5]: no cytotoxicity activity
- MIC [6]: 25 µM (≈ 10.7 µg/mL)
- MIC [7, 8]: 25 µM (≈ 10.7 µg/mL)

Structure (SMILES): O=C(Nc1nc2c(Cl)cc(Cl)cc2s1)C(Cl)(Cl)Cl [MTF640, N-(4,6-dichlorobenzo[d]thiazol-2-yl)trichloroacetamide]
- MBC [3]: 50 µM (≈ 18.2 µg/mL)
- MBC [4]: 50 µM (≈ 18.2 µg/mL)
- cytotoxicity (extracellular LDH level versus DMSO control) [5]: no cytotoxicity activity
- MIC [6]: 25 µM (≈ 9.11 µg/mL)
- MIC [7, 8]: 12.5 µM (≈ 4.56 µg/mL)

Structure (SMILES): N=C(Nc1nc2c(Cl)cccc2s1)C(Cl)(Cl)Cl [MTF235, 2,2,2-trichloro-N-(4-chlorobenzo[d]thiazol-2-yl)acetimidamide]
- bacterial growth / growth inhibition (in words) [1]: no growth
- bacterial growth / growth inhibition (in words) [2]: no growth
- MBC [3]: 50 µM (≈ 16.5 µg/mL)
- MBC [4]: 50 µM (≈ 16.5 µg/mL)
- cytotoxicity (extracellular LDH level versus DMSO control) [5]: no cytotoxicity activity
- MIC [6]: 25 µM (≈ 8.23 µg/mL)
- MIC [7, 8]: 25 µM (≈ 8.23 µg/mL)

Structure (SMILES): N=C(Nc1nc2c(Cl)cc(Cl)cc2s1)C(Cl)(Cl)Cl [MTF642, 2,2,2-trichloro-N-(4,6-dichlorobenzo[d]thiazol-2-yl)acetimidamide]
- MBC [3]: 50 µM (≈ 18.2 µg/mL)
- MBC [4]: 12.5 µM (≈ 4.54 µg/mL)
- cytotoxicity (extracellular LDH level versus DMSO control) [5]: no cytotoxicity activity
- MIC [6]: 50 µM (≈ 18.2 µg/mL)
- MIC [7, 8]: 12.5 µM (≈ 4.54 µg/mL)

Structure (SMILES): Cc1cccc2sc(NC(=N)C(Cl)(Cl)Cl)nc12 [MTF572, 2,2,2-trichloro-N-(4-methylbenzo[d]thiazol-2-yl)acetimidamide]
- bacterial growth / growth inhibition (in words) [1]: no growth
- bacterial growth / growth inhibition (in words) [2]: no growth
- MBC [4]: 100 µM (≈ 30.9 µg/mL)
- MIC [6]: 40 µM (≈ 12.3 µg/mL)
- MIC ([7]; RN4220, 20 h): 40 µM (≈ 12.3 µg/mL)

From US20260258006A1, “NEW ANTIBIOTIC COMPOUNDS” (UNIVERSITÉ CÔTE D'AZUR, priority 2022, published 2026)
